Test results as given in patent US11298400B2, “Method of enhancing the therapeutic efficacy of fexapotide triflutate in treating LUTS” (Nymox Corporation, priority 2019, dated 2022).
Marks after values point to notes of the source that are not given here. Ends that are not written are not given here.

Key:
[1] = tested on: Patients with BPH and who optionally also had LUTS; assay: Clinical trial: urinary peak flow rate (Qmax) mean change from baseline; assay type: in vivo, human; details: for improvement in peak flow rate mean change from baseline: FT twice over at least one year; for Mean Change of Qmax from baseline: intraprostatic
Experimental: (§1) Clinical trials were conducted on numerous individuals having BPH, some of whom also had LUTS. All protocols were done in accordance with applicable regulations, and carried out by physicians.
Patients were followed for >=3 months to several years with regular physical examinations, laboratory tests, and evaluations of symptoms. Urinary peak flow (Qmax) was measured by flow-meter readings using standard techniques, at 3 months and at 12 months or longer in subjects who were able to urinate adequate volume of urine (>125 mL) to provide a valid test. All peak flow measurements were assessed by a blinded central reader. The mean peak flow rate change from baseline was compared in different groups.

[2] = tested on: Patients with BPH and who optionally also had LUTS; assay: Clinical trial: nocturia score (IPSS question 7) mean change from baseline; assay type: in vivo, human; details: for improvement in nocturia score mean change from baseline: FT twice over at least one year; for Nocturia Score Mean Change From Baseline: intraprostatic, IPSS question 7, (SD)
Source text: Improvements in obstructive and irritative symptoms can be measured in accordance with techniques known in the art. For example, uroflowmeters are known to differentiate urine weight change to provide a continuous plot of the flow rate vs. time that is smoothed by internal electronic filtering to permit precise (±5%) measurement of Qmax. Schafer W, et al. “Good urodynamic practices: Uroflowmetry, filling cystometry and pressure-flow studies,” Neurourol Urodynamics, Vol. 21, pp. 261-74 (2002). Nocturia can be measured in a variety of manners, most of which involve patients completing a questionnaire before and after treatment to establish a baseline, and then determine the difference (improvement, lack of improvement, worsening, etc.) from baseline after treatment. Exemplary questionnaires include evaluating the scores from the nocturia question included in the International Prostate Symptom Score (IPSS), assessing the number of nocturnal voids (Boyarsky symptom score), the Madsen-Iversen Symptom Score, and the ICSmale questionnaire. See, e.g., Chartier-Kastler, et al., “The Measurement of Nocturia and its Impact on Quality of Sleep and Quality of Life in LUTS/BPH,” Eur. Urol. Supp., Vol. 5, pp. 3-11 (2006). A preferred method of measuring nocturia is by determining the mean change from baseline of the nocturia question in the IPSS (question 7). Question 7 solicits from the patient how many times over the past month they had to get up to urinate from the time they went to bed until the time they got up—the score ranging from none (score 0) to 5 or more times (score 5).
as §1
Patients with BPH and who optionally also had LUTS were given an intraprostatic injection of either a) FT2.5 in 10 mL phosphate buffered saline pH 7.2 (“PBS”) or b) FT 5.0 mg in PBS or c) FT 2.5 mg in PBS 2-dosages given >1 year apart, or d) PBS 10 mL alone, under double-blind conditions by a urologist in an office setting under ultrasound guidance. Patients were followed for >=3 months to several years with regular physical examinations, laboratory tests, and evaluations of symptoms. The mean difference from baseline nocturia scores to follow-up scores (nocturia scores are the values provided to question #7 in the IPSS) were calculated in FT treated subjects given single dose FT 2.5 mg, single dose FT 0.5 mg, 2-dose 2.5 mg>1 year apart, and Placebo treated controls.

[3] = tested on: Patients with BPH and who optionally also had LUTS; assay: Clinical trial: inability to provide urine volume >125 mL (Qmax unable) after intraprostatic injection; assay type: in vivo, human; details: for improvement in percentage of patients with Qmax failures: FT twice over at least one year; for % of Patients With Inability to Provide Urine Volume >125 mL: intraprostatic
Experimental: as §1
Patients with BPH and who optionally also had LUTS were given an intraprostatic injection of either a) FT 2.5 mg in phosphate buffered saline pH 7.2 (“PBS”) or b) PBS alone, under double-blind conditions by a urologist in an office setting under ultrasound guidance. Patients were followed for >=3 months to several years with regular physical examinations, laboratory tests, and evaluations of symptoms. […] Subjects who were unable to void >=125 mL despite drinking as much water as they wanted were classified as “Qmax unable”. The numbers of subjects who became Qmax unable was compared in different groups.

[4] = tested on: prostate glandular epithelial cells; assay: Tissue culture genetic array, in vitro; assay type: cell-based; details: tissue culture genetic array data
Source text: FT selectively causes loss of cell membrane integrity, mitochondrial metabolic arrest, depletion of RNA, DNA lysis and aggregation, and cell fragmentation and cell loss. The apoptotic process leads to typical ultrastructural progressive changes of membranous disruption and swelling, progressively deepening nuclear invaginations with eventual membranous bleb formations and cell death and fragmentation into apoptotic bodies. Histologically, typical apoptotic changes with positive immunohistochemical staining of markers for apoptosis are found throughout the injected areas for up to several weeks after treatment.

[5] = compared to a single administration of four times the amount
[6] = compared to a single administration of twice the amount
[7] = Two Doses of 2.5 mg FT > 1 year apart

Fexapotide Triflutate (IDQQVLSRIKLEIKRCL; also: trifluoroacetate salt) [FT]
improvement in peak flow rate mean change from baseline [1, 5]: about 47%
improvement in peak flow rate mean change from baseline [1, 6]: about 102%
improvement in peak flow rate mean change from baseline ([1]; compared to the control): about 111%
Mean Change of Qmax from baseline ([1]; Single Dose of 5.0 mg FT): 1.28 mL/s
Mean Change of Qmax from baseline ([1]; Single Dose of 10.0 mg FT): 1.76 mL/s
Mean Change of Qmax from baseline [1, 7]: 2.59 mL/s
improvement in nocturia score mean change from baseline ([2]; compared to a single administration of the same individual amount): about 37%
improvement in nocturia score mean change from baseline ([2]; compared to a single administration of twice the individual amount): about 19.4%
improvement in nocturia score mean change from baseline ([2]; compared to the control): about 48%
Nocturia Score Mean Change From Baseline ([2]; Single Dose of 5.0 mg FT): −0.54 (SD 1.1)*
Nocturia Score Mean Change From Baseline ([2]; Single Dose of 10.0 mg FT): −0.62 (SD 1.64)*
Nocturia Score Mean Change From Baseline [2, 7]: −0.74 (SD 1.26)**, ***
inhibition of the progression of urinary flow worsening ([3]; 2 single dosages of 2.5 mg separated by >1 year, vs one-time 5.0 mg or 10.0 mg dose): significantly better inhibition
improvement in percentage of patients with Qmax failures [3, 5]: about 83.3%
improvement in percentage of patients with Qmax failures [3, 6]: about 81.4%
improvement in percentage of patients with Qmax failures ([3]; compared to the control): about 77%
% of Patients With Inability to Provide Urine Volume >125 mL ([3]; Single Dose of 5.0 mg FT, 90 days after last treatment): 21%* (90 days)
% of Patients With Inability to Provide Urine Volume >125 mL ([3]; Single Dose of 10.0 mg FT, 90 days after last treatment): 23.3%** (90 days)
% of Patients With Inability to Provide Urine Volume >125 mL ([3]; Two Doses of 2.5 mg FT > 1 year apart, 180 days after last treatment): 3.9% (180 days)
inhibition of the progression of urinary flow worsening ([3]; double (two 2.5 mg doses) or 4X (four 2.5 mg doses) single dose, vs single dose 2.5 mg): did not have significantly better response than single dose 2.5 mg
inhibition of the progression of urinary flow worsening ([3]; single dose of FT 2.5 mg, after 3 months, vs control groups): not significantly better than control groups
effect on caspase, tumor necrosis factor and BCL pathways [4]: stimulates caspase pathways
